These results are taken from ChEMBL document CHEMBL1145050, “Discovery of (3S)-amino-(4R)-ethylpiperidinyl quinolones as potent antibacterial agents with a broad spectrum of activity and activity against resistant pathogens” (J Med Chem, 2003).

Assay [1] deals with Streptococcus pneumoniae. Nature of the assay: Minimum inhibitory concentration against Streptococcus pneumoniae - penicillin sensitive, strain STP64. The format is functional.
For assay [2], the system named is Staphylococcus aureus. As to the kind of experiment: Minimum inhibitory concentration against Staphylococcus aureus - methicillin resistant Ciprofloxacin resistant, strain MI339. The format is functional.
In assay [3] the test system is Staphylococcus aureus. As to the kind of experiment: Minimum inhibitory concentration against Staphylococcus aureus - methicillin resistant Ciprofloxacin sensitive strain MI300. The format is functional.
Assay [4] addresses T1, DNA gyrase (Escherichia coli, UniProt P0AES4+P0AES6). As to the kind of experiment: Inhibition of Wild Type DNA gyrase Supercoiling Activity in Escherichia coli. The format is protein-complex assay.
Assay [5] deals with Escherichia coli. Nature of the assay: Minimum inhibitory concentration against Escherichia coli, strain ES142. The format is functional.
The target in assay [6] is T1, DNA gyrase. As to the kind of experiment: Inhibition of Quinolone resistant gyrase Supercoiling Activity in Escherichia coli. The format is protein-complex assay.
Assay [7] concerns Pseudomonas aeruginosa. As to the kind of experiment: Minimum inhibitory concentration against Pseudomonas aeruginosa, strain PS96. The format is functional.
For assay [8], the system named is Streptococcus pneumoniae. As to the kind of experiment: Minimum inhibitory concentration against Streptococcus pneumoniae (Penicillin resistant) strain STP51. The format is functional.
Assay [9] has as its system Streptococcus pneumoniae. Nature of the assay: Minimum inhibitory concentration against Streptococcus pneumoniae (Penicillin sensitive) strain STP64. The format is functional.
Assay [10] concerns Staphylococcus aureus. As to the kind of experiment: Minimum inhibitory concentration against Staphylococcus aureus (Methicillin resistant Ciprofloxacin sensitive) strain MI300. The format is functional.
Assay [11] concerns Staphylococcus aureus. As to the kind of experiment: Minimum inhibitory concentration against Staphylococcus aureus (Methicillin resistant Ciprofloxacin resistant) strain MI339. The format is functional.
The test system of assay [12] is Streptococcus pneumoniae. As to the kind of experiment: Minimum inhibitory concentration against Streptococcus pneumoniae - penicillin resistant, strain STP51. The format is functional.

pIC50: −log10 of the molar value. In brackets after ≈: the same amount, converted by molar mass.

Regarding `CC[C@@H]1CCN(c2ccc3c(=O)c(C(=O)O)cn(C4CC4)c3c2Cl)C[C@H]1N`, the MIC in assay [1] was less than 0.004 mg/L; in [2] it was 0.31 mg/L (≈ 0.795 µM); in assay [3], less than 0.004 mg/L; in [5], less than 0.004 mg/L; in [7] it was 0.125 mg/L (≈ 0.321 µM). Moreover, the pIC50 in assay [4] is 5.39; in assay [6] it was 5.09.

With `N[C@H]1CCCN(c2c(F)cc3c(=O)c(C(=O)O)cn(C4CC4)c3c2F)C1`, the MIC was determined as 0.13 mg/L (≈ 0.358 µM) in assay [8]; 0.06 mg/L (≈ 0.165 µM) in assay [9]; 0.13 mg/L (≈ 0.358 µM) in assay [10]; 4 mg/L (≈ 11 µM) in assay [11]; 0.03 mg/L (≈ 0.0826 µM) in assay [5]; 0.5 mg/L (≈ 1.38 µM) in assay [7].

For the compound `CC[C@@H]1CCN(c2c(F)cc3c(=O)c(C(=O)O)cn(C4CC4)c3c2OC)C[C@H]1N`, the MIC was 0.008 mg/L (≈ 0.0198 µM) in assay [12]; 0.031 mg/L (≈ 0.0768 µM) in assay [1]; 0.125 mg/L (≈ 0.31 µM) in assay [2]; 0.008 mg/L (≈ 0.0198 µM) in assay [3]; 0.016 mg/L (≈ 0.0397 µM) in assay [5]; 1 mg/L (≈ 2.48 µM) in [7]. The negative logarithm of the IC50 (pIC50) in [4] was 5.10; in [6], 4.80.

In the case of `COc1c(N2CC[C@@H]([C@@H](C)N)C2)c(F)cc2c(=O)c(C(=O)O)cn(C3CC3)c12`, the minimum inhibitory concentration (MIC) in assay [12] stood at 0.008 mg/L (≈ 0.0205 µM); in assay [1], 0.008 mg/L (≈ 0.0205 µM); in [2], 0.016 mg/L (≈ 0.0411 µM); in [3] it was 0.008 mg/L (≈ 0.0205 µM); in assay [5], 0.008 mg/L (≈ 0.0205 µM); in assay [7], 0.25 mg/L (≈ 0.642 µM).

`CC[C@@H]1CCN(c2ccc3c(=O)c(C(=O)O)cn(C4CC4)c3c2OC)C[C@H]1N`: the MIC is 0.008 mg/L (≈ 0.0208 µM) in [12]; less than 0.003 mg/L in [1]; 0.25 mg/L (≈ 0.649 µM) in [2]; less than 0.004 mg/L in assay [3]; 0.006 mg/L (≈ 0.0156 µM) in assay [5]; 1 mg/L (≈ 2.59 µM) in assay [7]. Besides, the pIC50 in assay [4] is 5.08; in assay [6], 4.48.

On to `O=C(O)c1cn(C2CC2)c2c(Cl)c(N3CCNCC3)ccc2c1=O`, for which the minimum inhibitory concentration (MIC) in assay [1] was determined as 4 mg/L (≈ 11.5 µM); in assay [2] it was 8 mg/L (≈ 23 µM); in assay [3] it was 0.25 mg/L (≈ 0.719 µM); in [7], 0.5 mg/L (≈ 1.44 µM).

Turning to `COc1c(N2CCC[C@H](N)C2)c(F)cc2c(=O)c(C(=O)O)cn(C3CC3)c12`, the minimum inhibitory concentration (MIC) in [12] is 0.063 mg/L (≈ 0.168 µM); in assay [1], 0.125 mg/L (≈ 0.333 µM); in [2], 0.5 mg/L (≈ 1.33 µM); in assay [3] it was 0.031 mg/L (≈ 0.0826 µM); in assay [5] it was 0.031 mg/L (≈ 0.0826 µM); in assay [7], 1 mg/L (≈ 2.66 µM). Also, the pIC50 in [4] is 5.37; in assay [6], 4.77.

For `O=C(O)c1cn(C2CC2)c2cc(N3CCNCC3)c(F)cc2c1=O` [CIPROFLOXACIN], the figures for the MIC in [1], in [3] and in [7] were 0.25 mg/L (≈ 0.754 µM), 0.25 mg/L (≈ 0.754 µM) and 0.12 mg/L (≈ 0.362 µM), respectively.

With `CC[C@H]1CCN(c2ccc3c(=O)c(C(=O)O)cn(C4CC4)c3c2OC)C[C@H]1N`, the MIC in [12] worked out at 0.5 mg/L (≈ 1.3 µM); in assay [1], 1 mg/L (≈ 2.59 µM); in assay [2], 4 mg/L (≈ 10.4 µM); in assay [3], 0.25 mg/L (≈ 0.649 µM); in assay [5] it was 0.125 mg/L (≈ 0.324 µM); in assay [7], 4 mg/L (≈ 10.4 µM).

For the compound `N[C@H]1CCCN(c2nc3c(cc2F)c(=O)c(C(=O)O)cn3C2CC2)C1`, the minimal inhibitory concentration (MIC) in assay [12] is 4 mg/L (≈ 11.5 µM); in assay [1], 4 mg/L (≈ 11.5 µM); in assay [2] it was greater than 4 mg/L; in assay [3], 2 mg/L (≈ 5.77 µM); in assay [5], 0.125 mg/L (≈ 0.361 µM); in assay [7], 1 mg/L (≈ 2.89 µM). In addition, the pIC50 in assay [4] is 5.34; in assay [6], less than 3.53.

As for `CC[C@@H]1CCN(c2cc3c(cc2F)c(=O)c(C(=O)O)cn3C2CC2)C[C@H]1N`, the minimal inhibitory concentration (MIC) in assay [12] was 0.375 mg/L (≈ 1 µM); in [1], 0.75 mg/L (≈ 2.01 µM); in [2] it was greater than 3 mg/L; in assay [3], 0.094 mg/L (≈ 0.252 µM); in [5], 0.012 mg/L (≈ 0.0321 µM); in assay [7], 1.5 mg/L (≈ 4.02 µM).

Regarding `CC[C@@H]1CCN(c2nc3c(cc2F)c(=O)c(C(=O)O)cn3C2CC2)C[C@H]1N`, the MIC in [12] was 2 mg/L (≈ 5.34 µM); in assay [1], 4 mg/L (≈ 10.7 µM); in assay [2] it was greater than 4 mg/L; in assay [3], 0.25 mg/L (≈ 0.668 µM); in assay [5] it was 0.03 mg/L (≈ 0.0801 µM); in assay [7] it was 4 mg/L (≈ 10.7 µM). The negative-log IC50 (pIC50) is 4.17 in assay [4] and less than 3.56 in assay [6].

`CC[C@@H]1CCN(c2c(F)cc3c(=O)c(C(=O)O)cn(C4CC4)c3c2F)C[C@H]1N`: the MIC turned out to be 0.012 mg/L (≈ 0.0307 µM) in assay [12]; 0.023 mg/L (≈ 0.0588 µM) in assay [1]; 0.188 mg/L (≈ 0.48 µM) in assay [2]; 0.006 mg/L (≈ 0.0153 µM) in [3]; 0.006 mg/L (≈ 0.0153 µM) in [5]; 0.75 mg/L (≈ 1.92 µM) in assay [7]. Moreover, the pIC50 was 6.29 in assay [4] and 4.49 in assay [6].

With `COc1c(N2CCNC(C)C2)c(F)cc2c(=O)c(C(=O)O)cn(C3CC3)c12` (stereo not given) [GATIFLOXACIN], the MIC is 0.12 mg/L (≈ 0.32 µM) in assay [1]; 4 mg/L (≈ 10.7 µM) in assay [2]; 0.06 mg/L (≈ 0.16 µM) in assay [3]; 0.015 mg/L (≈ 0.04 µM) in assay [5]; 0.12 mg/L (≈ 0.32 µM) in assay [7].

Take `COc1c(N2CCC[C@H](N)C2)ccc2c(=O)c(C(=O)O)cn(C3CC3)c12`: the MIC is less than 0.008 mg/L in assay [12]; 0.03 mg/L (≈ 0.0839 µM) in assay [1]; 1 mg/L (≈ 2.8 µM) in [2]; less than 0.06 mg/L in [3]; 0.03 mg/L (≈ 0.0839 µM) in assay [5]; 0.5 mg/L (≈ 1.4 µM) in assay [7]. The negative-log IC50 (pIC50) in assay [4] is 4.75; in assay [6] it was 4.45.

Consider `NC1CCN(c2c(F)cc3c(=O)c(C(=O)O)cn(C4CC4)c3c2Cl)C1` (stereo not given) [CLINAFLOXACIN], for which the minimal inhibitory concentration (MIC) is 0.15 mg/L (≈ 0.41 µM) in assay [12]; 0.03 mg/L (≈ 0.082 µM) in assay [1]; 0.5 mg/L (≈ 1.37 µM) in [2]; 0.03 mg/L (≈ 0.082 µM) in assay [3]; 0.015 mg/L (≈ 0.041 µM) in [5]; 0.06 mg/L (≈ 0.164 µM) in [7]. Further, the pIC50 in [4] was 6.26; in assay [6] it was 5.56.

Take `N[C@H]1CCCN(c2ccc3c(=O)c(C(=O)O)cn(C4CC4)c3c2Cl)C1`: the MIC in assay [12] is less than 0.008 mg/L; in assay [1], 0.12 mg/L (≈ 0.332 µM); in [2], 1 mg/L (≈ 2.76 µM); in assay [3] it was 0.016 mg/L (≈ 0.0442 µM); in assay [5] it was 0.03 mg/L (≈ 0.0829 µM); in [7], 0.5 mg/L (≈ 1.38 µM). In addition, the figures for the pIC50 in assay [4] and in assay [6] were 5.05 and 4.45, respectively.

A word on the MIC: it is the lowest concentration found to suppress growth. Higher therefore signals a less susceptible organism. Broadly, the pIC50 is the IC50 on a negative log10 scale, so that one unit is a factor of ten. Higher therefore signals a small IC50.
